± gives the uncertainty stated by the source.
Experiment: xn = mol fraction of the nth substance listed

CCCC[n+]1ccn(C)c1.O=C([O-])C(F)(F)F + CC(=O)[O-].CCCC[n+]1ccn(C)c1
viscosity (293.15 K, 101 kPa, x2 = 0.2508): 137.7 ± 7.2 mPa·s
viscosity (293.15 K, 101 kPa, x2 = 0.4999): 210 ± 13 mPa·s
viscosity (293.15 K, 101 kPa, x2 = 0.7487): 343 ± 25 mPa·s
viscosity (298.15 K, 101 kPa, x2 = 0.2508): 103 ± 4.9 mPa·s
viscosity (298.15 K, 101 kPa, x2 = 0.4999): 152.5 ± 8.3 mPa·s
viscosity (298.15 K, 101 kPa, x2 = 0.7487): 238 ± 15 mPa·s
viscosity (303.15 K, 101 kPa, x2 = 0): 58 ± 2.5 mPa·s
viscosity (303.15 K, 101 kPa, x2 = 0.2508): 78.8 ± 3.5 mPa·s
viscosity (303.15 K, 101 kPa, x2 = 0.4999): 113.3 ± 5.5 mPa·s
viscosity (303.15 K, 101 kPa, x2 = 0.7487): 171.1 ± 9.6 mPa·s
viscosity (313.15 K, 101 kPa, x2 = 0): 37.8 ± 1.6 mPa·s
viscosity (313.15 K, 101 kPa, x2 = 0.2508): 49.7 ± 2.1 mPa·s
viscosity (313.15 K, 101 kPa, x2 = 0.4999): 66.8 ± 2.9 mPa·s
viscosity (313.15 K, 101 kPa, x2 = 0.7487): 94.9 ± 4.4 mPa·s
viscosity (323.15 K, 101 kPa, x2 = 0): 26.1 ± 1.1 mPa·s
viscosity (323.15 K, 101 kPa, x2 = 0.2508): 33 ± 1.4 mPa·s
viscosity (323.15 K, 101 kPa, x2 = 0.4999): 42.9 ± 1.8 mPa·s
viscosity (323.15 K, 101 kPa, x2 = 0.7487): 57.4 ± 2.4 mPa·s
viscosity (333.15 K, 101 kPa, x2 = 0): 18.89 ± 0.82 mPa·s
viscosity (333.15 K, 101 kPa, x2 = 0.2508): 23.2 ± 1 mPa·s
viscosity (333.15 K, 101 kPa, x2 = 0.4999): 29.1 ± 1.2 mPa·s
viscosity (333.15 K, 101 kPa, x2 = 0.7487): 37.6 ± 1.6 mPa·s
viscosity (343.15 K, 101 kPa, x2 = 0): 14.47 ± 0.63 mPa·s
viscosity (343.15 K, 101 kPa, x2 = 0.2508): 17.33 ± 0.74 mPa·s
viscosity (343.15 K, 101 kPa, x2 = 0.4999): 20.74 ± 0.88 mPa·s
viscosity (343.15 K, 101 kPa, x2 = 0.7487): 25.9 ± 1.1 mPa·s
viscosity (353.15 K, 101 kPa, x2 = 0): 11.25 ± 0.49 mPa·s
viscosity (353.15 K, 101 kPa, x2 = 0.2508): 13.18 ± 0.56 mPa·s
viscosity (353.15 K, 101 kPa, x2 = 0.4999): 15.68 ± 0.67 mPa·s
viscosity (353.15 K, 101 kPa, x2 = 0.7487): 18.86 ± 0.8 mPa·s

CN(CCO)CCO + CC(=O)[O-].CC[n+]1ccn(C)c1
electrical conductivity (288.15 K, 101 kPa, x2 = 0): 0.000224 ± 2.2e-05 S/m
electrical conductivity (293.15 K, 101 kPa, x2 = 0): 0.00029 ± 2.9e-05 S/m
electrical conductivity (298.15 K, 101 kPa, x2 = 0): 0.000397 ± 4e-05 S/m
electrical conductivity (303.15 K, 101 kPa, x2 = 0): 0.000528 ± 5.3e-05 S/m
electrical conductivity (308.15 K, 101 kPa, x2 = 0): 0.000675 ± 6.8e-05 S/m
electrical conductivity (313.15 K, 101 kPa, x2 = 0): 0.000896 ± 9e-05 S/m
electrical conductivity (318.15 K, 101 kPa, x2 = 0): 0.00113 ± 0.00011 S/m
electrical conductivity (323.15 K, 101 kPa, x2 = 0): 0.00144 ± 0.00014 S/m
electrical conductivity (328.15 K, 101 kPa, x2 = 0): 0.00187 ± 0.00019 S/m
viscosity (328.15 K, 101 kPa, x2 = 0): 16.9 ± 1 mPa·s
electrical conductivity (333.15 K, 101 kPa, x2 = 0): 0.00236 ± 0.00024 S/m
electrical conductivity (338.15 K, 101 kPa, x2 = 0): 0.00295 ± 0.0003 S/m
viscosity (338.15 K, 101 kPa, x2 = 0): 11.56 ± 0.7 mPa·s
electrical conductivity (343.15 K, 101 kPa, x2 = 0): 0.00365 ± 0.00036 S/m
viscosity (343.15 K, 101 kPa, x2 = 0): 9.79 ± 0.59 mPa·s
electrical conductivity (348.15 K, 101 kPa, x2 = 0): 0.00455 ± 0.00046 S/m
electrical conductivity (353.15 K, 101 kPa, x2 = 0): 0.00556 ± 0.00056 S/m

CC(=O)[O-].C[NH+]1CCCC1 + CC(=O)[O-].Cn1cc[nH+]c1
viscosity (298.15 K, 100 kPa, x2 = 0): 3.78 ± 0.08 mPa·s
viscosity (298.15 K, 100 kPa, x2 = 0.1): 4.87 ± 0.1 mPa·s
viscosity (298.15 K, 100 kPa, x2 = 0.19): 5.35 ± 0.11 mPa·s
viscosity (298.15 K, 100 kPa, x2 = 0.31): 6.23 ± 0.13 mPa·s
viscosity (298.15 K, 100 kPa, x2 = 0.4): 6.46 ± 0.14 mPa·s
viscosity (298.15 K, 100 kPa, x2 = 0.5): 6.78 ± 0.15 mPa·s
viscosity (298.15 K, 100 kPa, x2 = 0.59): 6.74 ± 0.15 mPa·s
viscosity (298.15 K, 100 kPa, x2 = 0.71): 6.59 ± 0.15 mPa·s
viscosity (298.15 K, 100 kPa, x2 = 0.8): 6.47 ± 0.15 mPa·s

CCCC[n+]1ccn(C)c1.F[B-](F)(F)F + CC(=O)c1ccccc1
viscosity (293.15 K, 100 kPa, x2 = 0): 133 ± 27 mPa·s
viscosity (303.15 K, 100 kPa, x2 = 0): 77 ± 15 mPa·s
viscosity (313.15 K, 100 kPa, x2 = 0): 49.1 ± 9.8 mPa·s
viscosity (323.15 K, 100 kPa, x2 = 0): 33 ± 6.6 mPa·s
viscosity (333.15 K, 100 kPa, x2 = 0): 23.3 ± 4.7 mPa·s

— the CheMixHub ionic liquid set
